The values below come from PubChem BioAssay AID485374 (Sanford-Burnham Center for Chemical Genomics, 2010).

“And” between values parts separate entries of the source, which are not always exact repeats. Equal entries are not always repeated. The source made the active and inactive calls. The rule behind the calls is not given here. Bounds are passed on as bounds.

The assay can be described thus: inhibitors of enzymatic SUMO conjugation, SAR follow-up, biochemical, AlphaScreen (AID 485374). The settings on record: AlphaScreen biochemical SUMOylation assay.
By IC50 is commonly meant the point on the concentration scale where inhibition reaches its midpoint. For the compound `COC(=O)C1=C(C(=O)OC)C2([C@@H](Cc3ccccc3)Nc3ccccc3)C=CC1O2` (some centres not stated), the IC50 is 0.329 µM.

As for `CCCCn1c(NC(=O)c2ccccc2Cl)c(C#N)c2nc3ccccc3nc21`, the IC50 was 20.1 µM.

For the compound `CCCCn1c(NC(=O)c2ccccc2Cl)c(S(=O)(=O)c2ccccc2)c2nc3ccccc3nc21`, the IC50 is 5.63 µM.

With `CCCCn1c(NC(=O)c2ccccc2)c(C#N)c2nc3ccccc3nc21`, the IC50 was 2.93 µM and 1.2 µM.

For `COc1cc(/C=C2\C(=O)N(c3ccccc3)N=C2C)ccc1O`, the IC50 was 21.1 µM and 25.5 µM.

Consider `COC(=O)C1=C(C(=O)OC)C2([C@H](C)Nc3ccccc3)C=CC1O2` (some centres not stated), for which the IC50 is 23.9 µM.

For the compound `C=CC[C@H](Nc1ccc(Cl)cc1)C12C=CC(O1)C(C(=O)OC)=C2C(=O)OC` (some centres not stated), the IC50 was 4.18 µM.

In the case of `CCCCn1c(NC(=O)c2ccc(F)cc2)c(S(=O)(=O)c2ccc(C)cc2)c2nc3ccccc3nc21`, the IC50 is 6.24 µM.

As for `CCCCn1c(NC(=O)c2ccc(Cl)cc2)c(C#N)c2nc3ccccc3nc21`, the IC50 was 2.1 µM.

Take `C=CC[C@@H](Nc1ccccc1)C12C=CC(O1)C(C(=O)OC)=C2C(=O)OC` (some centres not stated): the IC50 is 1.8 µM.

With `COC(=O)[C@@H]1C2CCC([C@@H](Cc3ccccc3)Nc3ccccc3)(O2)[C@@H]1C(=O)OC` (some centres not stated), the IC50 is > 100 µM (inactive).

Consider `CCCCn1c(NC(C)=O)c(C#N)c2nc3ccccc3nc21`, for which the IC50 is 8.11 µM.

Consider `CCCCn1c(NC(=O)c2ccccc2)c(S(=O)(=O)c2ccc(C)cc2)c2nc3ccccc3nc21`, for which the IC50 is 9.52 µM and 6.5 µM.

For `CCCCn1c(N)c(S(=O)(=O)c2ccc(C)cc2)c2nc3ccccc3nc21`, the IC50 is > 100 µM (inactive).

Regarding `COC(=O)C1=C(C(=O)OC)C2([C@@H](Cc3ccccc3)Nc3ccc(OC)cc3)C=CC1O2` (some centres not stated), the IC50 was 4.87 µM.

For the compound `COC(=O)C1=C(C(=O)OC)C2([C@@H](C)Nc3ccc(OC)cc3)C=CC1O2` (some centres not stated), the IC50 is 55.6 µM.

Turning to `COC(=O)C1=C(C(=O)OC)C2([C@@H](C)Nc3ccccc3)C=CC1O2` (some centres not stated), the IC50 is 7.79 µM.

Turning to `COc1cc(/C=C2\C(=O)N(c3ccccc3)N=C2C)ccc1OCc1ccccc1`, the IC50 was > 100 µM (inactive).

`COc1ccc2c(c1)C(NC(C)=O)C(=O)N2CCOc1ccccc1` (configuration not stated): the IC50 was 70.2 µM.

`C=CCC(Nc1ccccc1)C12C=CC(O1)C(C(=O)OC)=C2C(=O)OC` (configuration not stated): the IC50 was 1.36 µM.

In the case of `C=C[C@@H](Nc1ccccc1)C12C=CC(O1)C(C(=O)OC)=C2C(=O)OC` (some centres not stated), the IC50 is 7.23 µM.

Take `CCCCn1c(NC(=O)c2ccc(OC)cc2)c(S(=O)(=O)c2ccc(C)cc2)c2nc3ccccc3nc21`: the half-inhibitory concentration (IC50) was 8.08 µM.

As to `COC(=O)C1=C(C(=O)OC)C2([C@@H](Cc3ccc(OC)cc3)Nc3ccccc3)C=CC1O2` (some centres not stated), the IC50 is 0.614 µM.

As for `C=CC[C@@H](Nc1ccc(C)cc1)C12C=CC(O1)C(C(=O)OC)=C2C(=O)OC` (some centres not stated), the IC50 is 12.4 µM.

`COC(=O)C1=C(C(=O)OC)C2([C@@H](Cc3ccccc3)Nc3ccc(C)cc3)C=CC1O2` (some centres not stated): the IC50 is 2.96 µM.

In the case of `COC(=O)C1=C(C(=O)OC)C2(C(Cc3ccc(OC(F)(F)F)cc3)Nc3ccccc3)C=CC1O2` (configuration not stated), the IC50 was 0.611 µM.

For `CCCCn1c(NC(=O)c2ccco2)c(C#N)c2nc3ccccc3nc21`, the IC50 is 3.45 µM.

With `COC(=O)C1=C(C(=O)OC)C2(C(Cc3ccc(F)cc3)Nc3ccccc3)C=CC1O2` (configuration not stated), the IC50 was 0.527 µM.

In the case of `Nc1c(C(=O)NCc2ccco2)c2nc3ccccc3nc2n1Cc1ccccc1`, the IC50 was 41.2 µM.

With `COC(=O)C1=C(C(=O)OC)C2([C@H](Cc3ccccc3)Nc3ccc(C)cc3)C=CC1O2` (some centres not stated), the IC50 is 7.19 µM.

Regarding `CCC[C@@H](Nc1ccccc1)C12C=CC(O1)C(C(=O)OC)=C2C(=O)OC` (some centres not stated), the IC50 is 0.533 µM.

In the case of `COC(=O)C1=C(C(=O)OC)C2([C@H](C)Nc3ccc(Cl)cc3)C=CC1O2` (some centres not stated), the IC50 is 11.5 µM.

Regarding `COC(=O)C1=C(C(=O)OC)C2([C@@H](C)Nc3ccc(C)cc3)C=CC1O2` (some centres not stated), the IC50 is 35.1 µM.

Take `COC(=O)C1=C(C(=O)OC)C2([C@@H](Cc3ccc(C)cc3)Nc3ccccc3)C=CC1O2` (some centres not stated): the concentration for half-maximal inhibition (IC50) was 0.369 µM.

In the case of `C=CC[C@@H](Nc1ccc(Cl)cc1)C12C=CC(O1)C(C(=O)OC)=C2C(=O)OC` (some centres not stated), the IC50 is 3.84 µM.

`C=C[C@H](Nc1ccccc1)C12C=CC(O1)C(C(=O)OC)=C2C(=O)OC` (some centres not stated): the IC50 is 10.4 µM.

On to `CCCCCn1c(NC(=O)c2ccco2)c(C(=O)OCC)c2nc3ccccc3nc21`, for which the IC50 was 4.9 µM.

With `CCCCn1c(NC(=O)C2CCCCC2)c(C#N)c2nc3ccccc3nc21`, the IC50 was 2.39 µM.

In the case of `c1ccc(CC(Nc2ccccc2)c2ccco2)cc1` (configuration not stated), the IC50 was > 100 µM (inactive).

As for `C=CC[C@H](Nc1ccc(C)cc1)C12C=CC(O1)C(C(=O)OC)=C2C(=O)OC` (some centres not stated), the IC50 is 11.7 µM.

`S=c1[nH]nc(-c2cc(-c3ccccc3)n[nH]2)n1N=Cc1ccc(Br)s1`: the IC50 was 2.07 µM.

On to `C=CCC(c1ccco1)N(Cc1ccccc1)/C(=C/C(=O)OC)C(=O)OC` (configuration not stated), for which the IC50 was > 100 µM (inactive).

With `C=CC[C@H](Nc1ccccc1)C12C=CC(O1)C(C(=O)OC)=C2C(=O)OC` (some centres not stated), the IC50 is 5.95 µM.

For the compound `COC(=O)C=C(NC(CO)(CO)CO)C(=O)OC`, the IC50 was > 100 µM (inactive).

As to `COC(=O)C1=C(C(=O)OC)C2([C@H](Cc3ccccc3)Nc3ccc(OC)cc3)C=CC1O2` (some centres not stated), the IC50 was 13 µM.

As to `COC(=O)C1=C(C(=O)O)C2C=CC1([C@@H](Cc1ccccc1)Nc1ccccc1)O2` (some centres not stated), the IC50 was 2.87 µM.

Take `COc1ccc2c(c1)C(=O)C(=O)N2CCN1CCOCC1`: the IC50 was 76.8 µM.

On to `C=CC[C@H](N(Cc1ccccc1)/C(=C\C(=O)OC)C(=O)OC)C12C=CC(O1)C(C(=O)OC)=C2C(=O)OC` (some centres not stated), for which the IC50 is 15.1 µM.

For the compound `Cc1cc(C)c2c(c1)C(=O)C(=O)N2CCN1CCOCC1`, the IC50 is > 100 µM (inactive).

`C=CC[C@@H](Nc1ccc(OC)cc1)C12C=CC(O1)C(C(=O)OC)=C2C(=O)OC` (some centres not stated): the IC50 is 22.3 µM.

On to `CCCCn1c(NC(=O)c2ccco2)c(S(=O)(=O)c2ccc(C)cc2)c2nc3ccccc3nc21`, for which the IC50 was 7.9 µM.

Take `C=CC[C@@H](N(Cc1ccccc1)/C(=C\C(=O)OC)C(=O)OC)C12C=CC(O1)C(C(=O)OC)=C2C(=O)OC` (some centres not stated): the IC50 is 21.3 µM.

For `CCCCn1c(NC(=O)c2ccc(F)cc2)c(C#N)c2nc3ccccc3nc21`, the IC50 is 0.757 µM.

As for `COc1ccc2c(c1)C(NC(C)=O)C(=O)N2CC1COc2ccccc2O1` (configuration not stated), the IC50 is 66.3 µM.

As for `COc1cc(/C=C2\C(=O)N(c3ccccc3)N=C2C)ccc1OC(=O)c1cccs1`, the IC50 was 15.8 µM.

With `COC(=O)C1=C(C(=O)OC)C2([C@H](Cc3ccccc3)Nc3ccc(Cl)cc3)C=CC1O2` (some centres not stated), the IC50 was 2.56 µM.

`CCC[C@H](Nc1ccccc1)C12C=CC(O1)C(C(=O)OC)=C2C(=O)OC` (some centres not stated): the IC50 is 2.87 µM.

Regarding `CCCCNC(=O)c1c(NC(=O)c2ccccc2)n(Cc2ccccc2)c2nc3ccccc3nc12`, the IC50 was 91.1 µM.

As for `COC(=O)C1=C(C(=O)OC)C2([C@@H](C)Nc3ccc(Cl)cc3)C=CC1O2` (some centres not stated), the IC50 is 18.2 µM.

`N#Cc1c(NC(=O)c2ccccc2Cl)n(C2CCCCC2)c2nc3ccccc3nc12`: the IC50 was 1.95 µM.

As for `CCCCn1c(NC(=O)c2cccc(Cl)c2)c(C#N)c2nc3ccccc3nc21`, the IC50 is 1.62 µM.

As to `CC(=O)NC1C(=O)N(CCN2CCOCC2)c2ccc(C)cc21` (configuration not stated), the IC50 is > 100 µM (inactive).

As for `COCCn1c(NC(=O)c2ccc(Cl)cc2)c(S(=O)(=O)c2ccc(C)cc2)c2nc3ccccc3nc21`, the IC50 was 6.59 µM.

As for `COC(=O)C1=C(C(=O)OC)C2([C@@H](Cc3ccccc3)Nc3ccc(Cl)cc3)C=CC1O2` (some centres not stated), the IC50 was 0.713 µM.

For the compound `CCCCn1c(NC(=O)CC)c(S(=O)(=O)c2ccc(C)cc2)c2nc3ccccc3nc21`, the IC50 was 33.1 µM.

`CCCN1C(=O)C(NC(C)=O)c2cc(OC)ccc21` (configuration not stated): the IC50 was > 100 µM (inactive).

Regarding `N#Cc1c(NC(=O)c2ccccc2Cl)n(Cc2ccccc2)c2nc3ccccc3nc12`, the IC50 is 2.44 µM.

Regarding `COC(=O)C1=C(C(=O)OC)C2([C@H](Cc3ccc(C)cc3)Nc3ccccc3)C=CC1O2` (some centres not stated), the IC50 is 2.19 µM.

Regarding `CCC(=O)Nc1c(S(=O)(=O)c2ccccc2)c2nc3ccccc3nc2n1Cc1ccccc1`, the IC50 was 43.4 µM.

Turning to `COCCNC(=O)c1c(NC(=O)c2ccccc2)n(Cc2ccccc2)c2nc3ccccc3nc12`, the IC50 is 51.3 µM.

On to `COc1ccc2c(c1)C(NC(C)=O)C(=O)N2CCN1CCOCC1` (configuration not stated), for which the IC50 is 5.02 µM.

`COc1ccc(CN2C(=O)C(NC(C)=O)c3ccccc32)cc1` (configuration not stated): the IC50 is > 100 µM (inactive).

As for `COC(=O)C1=C(C(=O)OC)C2([C@H](Cc3ccccc3)Nc3ccccc3)C=CC1O2` (some centres not stated), the IC50 was 5.04 µM.

For `COc1ccc2c(c1)C(NC(C)=O)C(=O)N2CCc1ccccc1` (configuration not stated), the IC50 was > 100 µM (inactive).

As to `C=CC[C@H](Nc1ccc(OC)cc1)C12C=CC(O1)C(C(=O)OC)=C2C(=O)OC` (some centres not stated), the IC50 was 17.7 µM.

On to `CCCCn1c(N)c(C#N)c2nc3ccccc3nc21`, for which the IC50 is 13.3 µM.

Regarding `CCCC1=NN(c2ccccc2)C(=O)/C1=C\c1ccc(O)cc1`, the IC50 was 19.2 µM.
